Reference: patent publication US20240101599A1, “PEPTIDE, CELL GROWTH PROMOTER, PROTEIN PRODUCTION PROMOTER, CULTURE MEDIUM, CELL GROWTH METHOD USING PEPTIDE, AND PROTEIN PRODUCTION METHOD USING PEPTIDE” (Maruhachi Muramatsu, Inc., priority 2020, published 2024)
Peptide text beside a SMILES is read from it.

Assays:
CHO-K1 = assay: Cell growth test of each peptide on coating agent for 3 days; format: cell-based; parameters: Viability, 1 / Viability, 2 / Viability, 3 / Viability, Average: unit not given here; conditions: 2.1 mM Gly-Glu-Lys, poly-L-lysine coating; for Cells cell count, Average / Viability, Average: average n=3, 2.2 mM Asp-Gly-Pro; for Cells cell count, 1 / Viability, 1: replicate 1, 2.2 mM Asp-Gly-Pro; for Cells cell count, 2 / Viability, 2: replicate 2, 2.2 mM Asp-Gly-Pro; for Cells cell count, 3 / Viability, 3: replicate 3, 2.2 mM Asp-Gly-Pro
Method: Peptides having the sequences of Gly-Glu-Lys (GEK) and Asp-Gly-Pro (DGP) were synthesized to prepare each peptide solution such that the concentration was a concentration at which the cell number increased the most within a range of 0 mM to 5 mM. In other words, Gly-Glu-Lys (GEK) was adjusted to 21 mM, and Asp-Gly-Pro (DGP) was adjusted to 22 mM, and an amount of 1/10 of the total culture medium volume was added to each well immediately before the cell culture test such that final concentrations were 2.1 mM and 2.2 mM, respectively.
Poly-L-lysine (Peptide Institute, Inc., Poly-L-Lysine Hydrochloride, code: 3075) was prepared to 0.1 mg/mL, and 200 μL was dispensed into each well of a 24-well plate, which was left to stand in an incubator at 37° C. for 2 hours. After removing the residual liquid with an aspirator, rinsing was performed with distilled water, irradiation was performed with a UV lamp in a clean bench without a lid, and drying was performed overnight to sterilize. A cell suspension prepared such that CHO-K1 (RIKEN BioResource Research Center, cell number: RCB2330) was at 4×10^4 cells/mL was seeded in a 24-well plate at 500 μL/well and cultured in an incubator at 37° C. and 5% CO2 for 24 hours. As a culture medium, an MEMα culture medium (Gibco) containing 10% FBS was used.
After removing the culture medium from each well and washing with the MEMα culture medium (500 μL), 450 μL of a new MEMα culture medium was dispensed into each well, and each peptide solution (50 μL) was added (total 500 μL/well) to perform culture for 3 days. The cells were recovered to count the cell number. A similar culture test was performed using a system containing neither peptide nor FBS as a comparative sample.
The culture medium in each well was recovered in a 1.5 mL tube to be rinsed with 200 μL of MEMα, and the rinsed liquid was also recovered in the same 1.5 mL tube. Thereafter, 100 μL of trypsin was added and incubated for 3 minutes. After rinsing with 300 μL of MEMα containing 10% FBS, the rinsed liquid was also recovered in the same 1.5 mL tube. After rinsing again with 200 μL of MEMa containing 10% FBS, the rinsed liquid was also recovered in the same 1.5 mL tube.
A centrifugation operation was performed on the cells recovered in the 1.5 mL tube. The centrifugation conditions were 1,000 rpm, 10 minutes, and 4° C.
The supernatant was removed, and 300 μL of Cold PBS (phosphate buffered saline) was added to perform a centrifugation operation under the same conditions. The present operation was repeated twice.
Suspension was carried out with 100 μL of Binding Buffer, and 2 μL of propidium iodide (PI) was added and stirred in the tube to cause a reaction for 15 minutes at room temperature and with light shielding. Thereafter, the viable cell count and the viability were measured with a flow cytometer.
The above preparation, culture, and measurement were performed with n=3. Table 13 and FIG. 13 show the viable cell count in each peptide solution, and Table 14 and FIG. 14 show the cell viability in each peptide solution.

[1] = tested on: serum-free floating CHO DP-12; assay: Protein production test on AGK and GPP in floating cell system; format: cell-based; conditions: AGK 3.95 mM, GPP 4.40 mM + medium supplemented with vitamins and the like, ELISA
Method: Peptides having the sequences of Ala-Gly-Lys (AGK) and Gly-Pro-Pro (GPP) were synthesized to prepare peptide solutions of 5.53 mM of Ala-Gly-Lys (AGK) and 6.16 mM of Gly-Pro-Pro (GPP).
5 mL of each of a basal medium, a medium supplemented with vitamins and the like (basal medium +a component supplemented with vitamins and the like), and each peptide solution was added to each well of a 24-well (Deep well) cassette of Micro-24 Bioreactor System (manufactured by Nihon Pall Corporation) to perform culture overnight under the conditions of 37° C., pH 7, and 650 rpm. On the next day, pH calibration was performed, and thereafter 2 mL of the cell suspension prepared at 3.5×10^5 cells/mL was added to each well of the 24-well (Deep well) cassette, seeded such that the cell density of the floating cells was 1×10^5 cells/mL (7 mL/well), and cultured in the following evaluation medium under culture conditions of 37° C., pH 7, 650 rpm, and dissolved oxygen of 30%.
• Basal medium • Medium supplemented with vitamins and the like (basal medium+component supplemented with vitamins and the like) • AGK (3.95 mM)+medium supplemented with vitamins and the like • GPP (4.40 mM)+medium supplemented with vitamins and the like
As a culture medium, a basal medium in which 200 nM of methotrexate, 10 μg/mL of insulin, 5.5 μg/mL of transferrin, 6.7 ng/mL of sodium selenite, 10 μL/mL of Anti-Clumping Agent, and 10 μL/mL of 10% Pluronic F68 were blended in a DMEM/F12 culture medium (Gibco) was used.
As the floating cells used, serum-free floating CHO DP-12 obtained by acclimating CHO DP-12 (ATCC, Cat. No. CRL-12445) to serum-free flotation and subculturing using a 100 mL volume Erlenmeyer flask and with a shaking culture device (Custom Bio Shaker CO2-BR-43FL, TAITEC CORPORATION) under the culture conditions of 37° C., 5% CO2, and a stirring speed of 125 rpm was used.
After the third day of culture, 150 μL of the culture medium was recovered in a 1.5 mL tube from each well of the 24-well (Deep well) cassette to perform a centrifugation operation (5,000 rpm, for 5 minutes), and the supernatant was recovered to measure the amount of produced protein by ELISA.

Compound | Cells cell count, Average (CHO-K1) | Viability, Average (CHO-K1) | Cells cell count, 1 (CHO-K1) | Viability, 1 (CHO-K1) | Cells cell count, 2 (CHO-K1) | Viability, 2 (CHO-K1) | Cells cell count, 3 (CHO-K1) | Viability, 3 (CHO-K1) | Amount of protein produced ([1]; Day 3) [mg/L] | Amount of protein produced ([1]; Day 4) [mg/L] | Amount of protein produced ([1]; Day 5) [mg/L] | Amount of protein produced ([1]; Day 6) [mg/L] | Amount of protein produced ([1]; Day 7) [mg/L]
NCCCC[C@H](NC(=O)[C@H](CCC(=O)O)NC(=O)CN)C(=O)O [GEK, Gly-Glu-Lys] (H-Gly-Glu-Lys-OH; N-terminus and C-terminus assumed) | 19.35 ×10^4 | 94.5 | 17.94 ×10^4 | 94.7 | 19.72 ×10^4 | 95.1 | 20.39 ×10^4 | 93.8 |  |  |  |  | 
C[C@H](N)C(=O)NCC(=O)N[C@@H](CCCCN)C(=O)O [AGK, Ala-Gly-Lys] (H-Ala-Gly-Lys-OH; N-terminus and C-terminus assumed) |  |  |  |  |  |  |  |  | 17.74 | 31.36 | 49.43 | 65.58 | 73.46
Asp-Gly-Pro [DGP] | 11.99 ×10^4 | 78.5 | 11.69 ×10^4 | 77.9 | 10.47 ×10^4 | 75.6 | 13.82 ×10^4 | 82.0 |  |  |  |  | 
Gly-Pro-Pro [GPP] |  |  |  |  |  |  |  |  | 14.95 | 32.30 | 52.53 | 67.01 | 80.86
